Each structure is given as a SMILES string.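 48-hour exposure; five concentrations; linearly interpolated endpoints. Definition used: TGI = concentration required for complete inhibition of growth.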

Test systems include HS 578T breast; CAKI-1 renal; MDA-N; T-47D breast; MDA-MB-231 breast; DU-145 prostate; MDA-MB-435; M19-MEL melanoma; UACC-62 melanoma; LXFL 529 NSCLC; SNB-78 CNS; DMS 273 small cell lung; HOP-92 NSCLC; KM20L2 colon; HOP-18 NSCLC; OVCAR-4 ovarian; SK-MEL-2 melanoma; OVCAR-5 ovarian.
What all share (experiment): growth of human tumour cells (NCI), 48 h

Turning to `COc1cc(CNc2nc3cc(C(F)(F)F)ccc3nc2C)cc(OC)c1OC`, the TGI is 39.7 µM in the assay with HS 578T breast; 96.4 µM with CAKI-1 renal; 33.2 µM in the assay with MDA-N; 40.4 µM with T-47D breast; 29.3 µM in the assay with MDA-MB-231 breast; above 100 µM with DU-145 prostate. This molecule displayed a TGI in the assay on MDA-MB-435 of 55.5 µM.

Take `c1ccc(Nc2nnc(-c3nsc4ccccc34)o2)cc1`: the TGI in the assay with M19-MEL melanoma, in the assay with UACC-62 melanoma, in the assay with LXFL 529 NSCLC, in the assay on SNB-78 CNS, with DMS 273 small cell lung and in the assay on HOP-92 NSCLC was above 100 µM each time. In addition, the TGI in the assay on KM20L2 colon, in the assay on HOP-18 NSCLC, in the assay on OVCAR-4 ovarian, with SK-MEL-2 melanoma and with OVCAR-5 ovarian was above 100 µM in each case.
